For one data set, the system named is Sphaerotheca fuliginea. Description: Sphaerotheca test (cucumber)/protective. It is filed as in vivo. To be noted: Podosphaera fuliginea, 168 h, protective, evaluation 7 days after inoculation, read-out: Efficacy in %. The method, then: Sphaerotheca Test (Cucumber)/Protective
(§1) • Solvents: 24.5 parts by weight of acetone • 24.5 parts by weight dimethylacetamide • Emulsifier: 1.0 part by weight alkylaryl polyglycol ether
(§2) To produce a suitable preparation of active compound, 1 part by weight of active compound is mixed with the stated amounts of solvents and emulsifier, and the concentrate is diluted with water to the desired concentration.
To test for protective activity, young plants are sprayed with the preparation of active compound at the stated application rate. After the spray coating has dried on, the plants are inoculated with an aqueous spore suspension of Sphaerotheca fuliginea. The plants are then placed in a greenhouse at about 23° C. and a relative atmospheric humidity of about 70%.
(§3) Evaluation is carried out 7 days after the inoculation. 0% means an efficacy which corresponds to that of the control, whereas an efficacy of 100% means that no infection is observed.

Another data set deals with Venturia inaequalis. Description: Venturia test (apple)/protective. To be noted: 240 h, protective, evaluation 10 days after inoculation, read-out: Efficacy in %. It is filed as in vivo. The method, then:
Venturia Test (Apple)/Protective
• Solvents: 24.5 parts by weight acetone • 24.5 parts by weight dimethylacetamide • Emulsifier: 1.0 part by weight alkylaryl polyglycol ether
To produce a suitable preparation of the active compound, 1 part by weight of active compound is mixed with the stated amounts of solvents and emulsifier, and the concentrate is diluted with water to the desired concentration.
To test for protective activity, young plants are sprayed with the preparation of active compound at the stated application rate. After the spray coating has dried on, the plants are inoculated with an aqueous Conidia suspension of the apple scab pathogen Venturia inaequalis and then remain in an incubation cabin at about 20° C. and 100% relative atmospheric humidity for 1 day.
The plants are then placed in a greenhouse at about 21° C. and a relative atmospheric humidity of about 90%.
(§4) Evaluation is carried out 10 days after the inoculation. 0% means an efficacy which corresponds to that of the control, whereas an efficacy of 100% means that no infection is observed.

A short description of data set [1]: logP determination by HPLC (reverse-phase C 18), EEC Directive 79/831 Annex V.A8. It is filed as physicochemical. Particulars: reverse-phase C18 HPLC column, 43° C. The method, then:
The logP value given in the Preparation Examples and tables above are determined in accordance with EEC Directives 79/831 Annex V.A8 by HPLC (High Performance Liquid Chromatography) using a reverse-phase column (C 18). Temperature: 43° C.
The determination is carried out in the acidic range at pH 2.3 using the mobile phases 0.1% aqueous phosphoric acid and acetonitrile; linear gradient from 10% acetonitrile to 90% acetonitrile.
Calibration is carried out using unbranched alkan-2-ones (having 3 to 16 carbon atoms) with known logP values (determination of the logP values by the retention times using linear interpolation between two successive alkanones).

The subject of the next data set is Podosphaera leucotricha. Briefly: Podosphaera test (apple)/protective. It is filed as in vivo. Particulars: 240 h, protective, evaluation 10 days after inoculation, read-out: Efficacy in %. The method, then:
Podosphaera Test (Apple)/Protective
as §1, §2
To test for protective activity, young plants are sprayed with the preparation of active compound at the stated application rate. After the spray coating has dried on, the plants are inoculated with an aqueous spore suspension of the apple mildew pathogen Podosphaera leucotricha. The plants are then placed in a greenhouse at about 23° C. and a relative atmospheric humidity of about 70%.
as §4

Another data set deals with Alternaria solani. Description: Alternaria test (tomato)/protective. It is filed as in vivo. To be noted: protective, 750 g/ha, evaluation 7 days after inoculation. The method, then:
Alternaria Test (Tomato)/Protective
• Solvent: 49 parts by weight N,N-dimethylformamide • Emulsifier: 1 part by weight of alkylaryl polyglycol ether
(§5) To produce a suitable preparation of active compound, 1 part by weight of active compound is mixed with the stated amounts of solvent and emulsifier, and the concentrate is diluted with water to the desired concentration.
To test for protective activity, young tomato plants are sprayed with the preparation of active compound at the stated application rate. 1 day after the treatment, the plants are inoculated with a spore suspension of Alternaria solani and then remain at 100% relative humidity and 20° C. for 24 h. The plants then remain at 96% relative atmospheric humidity and a temperature of 20° C.
as §3

For another data set, the system named is Pyrenophora teres. Briefly: Pyrenophora teres test (barley)/protective. To be noted: protective, 500 g/ha, evaluation 7 days after inoculation. Type of data set: in vivo. The method, then: Pyrenophora teres Test (Barley)/Protective
• Solvent: 25 parts by weight N,N-dimethylacetamide • Emulsifier: 0.6 part by weight alkylaryl polyglycol ether
as §5
To test for protective activity, young plants are sprayed with the preparation of active compound at the stated application rate. After the spray coating has dried on, the plants are sprayed with a conidia suspension of Pyrenophora teres. The plants remain in an incubation cabin at 20° C. and 100% relative atmospheric humidity for 48 hours.
The plants are then placed in a greenhouse at a temperature of about 20° C. and relative atmospheric humidity of about 80%.
as §3

Where [2] appears, read: pH 2.3, HPLC, read-out: logP (pH 2.3).
The mark [3] stands for this setting: Table 1, acidic range at pH 2.3, HPLC, read-out: logP.

Like-named read-outs stand apart in the source and are kept apart here.

As to `Cc1ccsc1C(=O)Nc1ccccc1-c1ccc(F)c(Cl)c1` [Example 1, N-(3′-chloro-4′-fluoro-1,1′-biphenyl-2-yl)-3-methyl-2-thiophenecarboxamide], the pest or weed control at 100 g/ha with Sphaerotheca fuliginea, in the data set with Venturia inaequalis and with Podosphaera leucotricha was 100% each time. Moreover, the chromatographic logP in data set [1] (setting [2]) was determined as 3.85.
As for `Cc1ccsc1C(=O)Nc1ccccc1-c1ccc(Br)cc1` [Example 3], the chromatographic logP in data set [1] (setting [3]) was 4.12. This compound also showed an Efficacy in % in the data set on Alternaria solani of 100%.
As to `Cc1ccsc1C(=O)Nc1ccccc1-c1cccc(Cl)c1` [Example 5], the pest or weed control at 100 g/ha amounted to 93% in the data set on Sphaerotheca fuliginea, 100% with Venturia inaequalis and 100% in the data set with Podosphaera leucotricha. Also, the chromatographic logP in data set [1] (setting [3]) is 3.97. This compound displayed an Efficacy in % in the data set with Alternaria solani of 100%.
Take `Cc1ccsc1C(=O)Nc1ccccc1-c1ccc(OC(F)(F)F)cc1` [Example 6]: the pest or weed control at 100 g/ha with Sphaerotheca fuliginea and in the data set on Podosphaera leucotricha was 100% each time. In addition, in data set [1] (setting [3]), the chromatographic logP came out at 4.33. The compound also returned an Efficacy in % with Alternaria solani of 100%.
With `Cc1ccsc1C(=O)Nc1ccccc1-c1ccc(F)cc1` [Example 8], the chromatographic logP in data set [1] (setting [3]) was found to be 3.65. For the same compound, the values for the Efficacy in % in the data set on Pyrenophora teres and with Alternaria solani were 80% and 100%, respectively.
`Cc1ccsc1C(=O)Nc1ccccc1-c1ccc(F)c(F)c1` [Example 9]: the pest or weed control at 100 g/ha in the data set on Sphaerotheca fuliginea, in the data set with Venturia inaequalis and with Podosphaera leucotricha was 100% in each case. The chromatographic logP in data set [1] (setting [3]) was determined as 3.55. Besides, the Efficacy in % in the data set with Pyrenophora teres and with Alternaria solani was 100% throughout.
With `Cc1ccsc1C(=O)Nc1ccccc1-c1ccc(Cl)c(F)c1` [Example 10], the pest or weed control at 100 g/ha in the data set with Sphaerotheca fuliginea, in the data set on Venturia inaequalis and in the data set with Podosphaera leucotricha was 100% throughout. Moreover, the chromatographic logP in data set [1] (setting [3]) turned out to be 3.85. Also, in the data set with Alternaria solani, the Efficacy in % turned out to be 100%.
On to `Cc1ccsc1C(=O)Nc1ccccc1-c1ccc(OC(F)(F)F)c(F)c1` [Example 11], for which the pest or weed control at 100 g/ha with Sphaerotheca fuliginea, with Venturia inaequalis and in the data set with Podosphaera leucotricha was 100% in each case. Further, the chromatographic logP in data set [1] (setting [3]) is 4.13.
`Cc1ccsc1C(=O)Nc1ccccc1-c1ccc(OC(F)(F)F)c(C(F)(F)F)c1` [Example 12]: the pest or weed control at 100 g/ha with Sphaerotheca fuliginea and in the data set on Podosphaera leucotricha was 100% in each case. In addition, in data set [1] (setting [3]), the chromatographic logP was 4.37.
In the case of `Cc1ccsc1C(=O)Nc1ccccc1-c1ccc(Cl)cc1F` [Example 13], the pest or weed control at 100 g/ha in the data set on Sphaerotheca fuliginea, in the data set on Venturia inaequalis and in the data set on Podosphaera leucotricha was 100% in each case. The compound further yielded an Efficacy in % with Pyrenophora teres of 94%.
Consider `Cc1ccsc1C(=O)Nc1ccccc1-c1cc(Cl)cc(Cl)c1` [Example 15], for which the figures for the pest or weed control at 100 g/ha with Sphaerotheca fuliginea, in the data set on Venturia inaequalis and with Podosphaera leucotricha were 100%, 97% and 100%, respectively. For the same compound, the chromatographic logP in data set [1] (setting [3]) came out at 4.32.
Consider `Cc1ccsc1C(=O)Nc1ccccc1-c1ccc(Cl)cc1Cl` [Example 19], for which the pest or weed control at 100 g/ha was determined as 96% with Sphaerotheca fuliginea, 99% in the data set with Venturia inaequalis and 100% in the data set with Podosphaera leucotricha. For the same compound, the chromatographic logP in data set [1] (setting [3]) amounted to 5.76.
In the case of `Cc1ccsc1C(=O)Nc1ccccc1Br` [III-1, N-(2-bromophenyl)-3-methyl-2-thiophenecarboxamide], in data set [1] (setting [2]), the chromatographic logP amounted to 3.3.

For the origin of these results see patent US7381688B2, “Methylthiophene carboxanilides” (Bayer CropScience AG, priority 2002, dated 2008).
